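Exposure lasted 48 hours, with cells grown in 96-well plates and compounds tested at five concentrations. GI50 = concentration required for 50% inhibition of growth. TGI denotes the concentration required for complete inhibition of growth.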

Some test systems named below: CCRF-CEM leukemia; 786-0 renal; SK-MEL-2 melanoma; MOLT-4 leukemia; KM12 colon; SF-539 CNS; OVCAR-3 ovarian; MDA-MB-231 breast; PC-3 prostate.
Assay in all cases: NCI anticancer screen, dose series, 48 h

As to `COc1ccc2nc3cc(Cl)ccc3c(SCC(=O)Nc3ccccc3-c3ccccc3NC(=O)CSc3c4ccc(Cl)cc4nc4ccc(OC)cc34)c2c1`, the TGI with CCRF-CEM leukemia, in the experiment on 786-0 renal, in the experiment on SK-MEL-2 melanoma, in the experiment on MOLT-4 leukemia, in the experiment on KM12 colon and in the experiment on SF-539 CNS was over 100 µM each time. The same compound showed a TGI in the experiment on OVCAR-3 ovarian of over 100 µM.

On to `O=C(N/C(=C\c1ccc(/C=C(\NC(=O)c2ccccc2)c2nc3ccccc3[nH]2)cc1)c1nc2ccccc2[nH]1)c1ccccc1`, for which the TGI in the experiment on CCRF-CEM leukemia, in the experiment on 786-0 renal, in the experiment on SK-MEL-2 melanoma, with MOLT-4 leukemia, with SF-539 CNS and with OVCAR-3 ovarian was over 100 µM throughout.

As for `CCc1cccc(C)c1NC(=O)C1=C(C)NC(C)=C(C(=O)Nc2c(C)cccc2CC)C1c1ccc2c(c1)OCO2`, the TGI with CCRF-CEM leukemia stood at 51.2 µM; in the experiment on 786-0 renal, 33.2 µM; in the experiment on SK-MEL-2 melanoma, 29.6 µM; with MOLT-4 leukemia, 72.8 µM; in the experiment with KM12 colon, 30.9 µM; in the experiment with SF-539 CNS it was 38.6 µM. In addition, the TGI in the experiment on OVCAR-3 ovarian was determined as 39.8 µM.

On to `COc1cccc(-c2cc3c4c(nc5ccccc53)C(=O)c3cccnc3-c4n2)c1`, for which the GI50 in the experiment with 786-0 renal was 2.03 µM; with SK-MEL-2 melanoma it was 1.18 µM; in the experiment on MOLT-4 leukemia, 0.788 µM; in the experiment with MDA-MB-231 breast, 4.61 µM; with KM12 colon it was 1.54 µM; with SF-539 CNS it was 3.28 µM. Moreover, the GI50 with PC-3 prostate was 2.73 µM; in the experiment on OVCAR-3 ovarian, 0.3 µM. For the same compound, the TGI with 786-0 renal is 4.48 µM; with SK-MEL-2 melanoma it was 4.16 µM; with MOLT-4 leukemia, over 100 µM; in the experiment with MDA-MB-231 breast it was over 37.8 µM; in the experiment with KM12 colon, 3.75 µM; in the experiment with SF-539 CNS, 10.3 µM. This compound also yielded a TGI with PC-3 prostate of 12.8 µM.

Regarding `COc1cc([N+](=O)[O-])c(OC)cc1-c1nc2sccn2c1/C=N/N=C(N)N`, the GI50 in the experiment with 786-0 renal is 18 µM; in the experiment with SK-MEL-2 melanoma it was 30.9 µM; in the experiment on MOLT-4 leukemia it was over 100 µM; in the experiment with MDA-MB-231 breast it was 24.2 µM; with KM12 colon, 4.36 µM; with SF-539 CNS, 12 µM. Moreover, the GI50 with PC-3 prostate is 24.2 µM; in the experiment with OVCAR-3 ovarian it was 14.6 µM. Also, the TGI in the experiment with 786-0 renal was 49.6 µM; with SK-MEL-2 melanoma it was over 100 µM; in the experiment with MOLT-4 leukemia, over 100 µM; in the experiment on MDA-MB-231 breast, 69.5 µM; with KM12 colon, over 100 µM; in the experiment on SF-539 CNS, 46.5 µM. Moreover, the TGI is over 100 µM with PC-3 prostate and 66.5 µM with OVCAR-3 ovarian.

Consider `CCCN(CCC)C(=O)C(=O)c1c(N)[nH]n(-c2ccccc2)c1=O`, for which the TGI in the experiment on CCRF-CEM leukemia, with 786-0 renal, in the experiment on SK-MEL-2 melanoma, in the experiment with MOLT-4 leukemia, in the experiment on KM12 colon and with SF-539 CNS was over 100 µM each time. The compound also displayed a TGI in the experiment with OVCAR-3 ovarian of over 100 µM.

In the case of `CNC(=O)OCc1c2ccncc2c(C)c2c1[nH]c1ccc(OC)cc12`, the TGI is 1.29 µM in the experiment on CCRF-CEM leukemia; 0.494 µM in the experiment on 786-0 renal; 0.509 µM in the experiment with SK-MEL-2 melanoma; 0.516 µM in the experiment with MOLT-4 leukemia; over 100 µM in the experiment on KM12 colon; 0.719 µM with SF-539 CNS. Also, the TGI in the experiment with OVCAR-3 ovarian was over 100 µM.

As to `COc1cccc(NC(=O)CC(=O)N2N=C(n3ccc4ccccc43)CC2c2ccccc2)c1` (stereo not given), the TGI with CCRF-CEM leukemia, in the experiment with 786-0 renal, in the experiment with SK-MEL-2 melanoma, in the experiment with MOLT-4 leukemia, in the experiment with KM12 colon and in the experiment with SF-539 CNS was over 100 µM in each case. Further, the TGI in the experiment on OVCAR-3 ovarian is over 100 µM.

For the compound `CCOc1ccc(NC(=O)C(=O)C(C(=O)c2ccc3ccccc3c2)C2OC(=O)c3ccccc32)cc1` (stereo not given), the TGI is 57.7 µM in the experiment with CCRF-CEM leukemia; 40.5 µM in the experiment on 786-0 renal; 37.2 µM with SK-MEL-2 melanoma; 43.7 µM with MOLT-4 leukemia; over 100 µM with KM12 colon; 39 µM in the experiment on SF-539 CNS. The compound also registered a TGI in the experiment with OVCAR-3 ovarian of 86.8 µM.

Consider `C[C@]12CCC(=O)CC1CCCC2=O` (stereo not given in full), for which the TGI with CCRF-CEM leukemia, in the experiment with 786-0 renal, with SK-MEL-2 melanoma, with MOLT-4 leukemia, in the experiment on KM12 colon and in the experiment with SF-539 CNS was over 100 µM each time. Further, the TGI in the experiment on OVCAR-3 ovarian was over 100 µM.

Take `Oc1c(Cl)c(Cl)c(O)c2c1CCCC2`: the TGI in the experiment on CCRF-CEM leukemia came to 5.05 µM; with 786-0 renal, 3.94 µM; with SK-MEL-2 melanoma, 45.4 µM; with MDA-MB-231 breast it was 41.9 µM; in the experiment on KM12 colon, 30.2 µM; in the experiment with SF-539 CNS, 23.5 µM. In addition, the TGI with PC-3 prostate was 36.7 µM.

Turning to `Cn1cc(-c2csc(-c3cn(CCCN4CCCCC4)c4ccccc34)n2)c2cccnc21`, the GI50 in the experiment with 786-0 renal was 1.53 µM; with SK-MEL-2 melanoma, 18.8 µM; in the experiment on MDA-MB-231 breast, 1.77 µM; in the experiment with KM12 colon, 1.72 µM; in the experiment with SF-539 CNS it was 1.62 µM; in the experiment on PC-3 prostate, 1.74 µM. In addition, the GI50 with OVCAR-3 ovarian was 1.7 µM. The TGI in the experiment on 786-0 renal amounted to 2.93 µM; in the experiment with SK-MEL-2 melanoma, 38.5 µM; in the experiment with MDA-MB-231 breast, 3.32 µM; with KM12 colon, 3.25 µM; in the experiment with SF-539 CNS, 3.08 µM; with PC-3 prostate, 3.3 µM. In addition, the TGI in the experiment with OVCAR-3 ovarian amounted to 3.14 µM.

As to `CC(=O)[CH-]C(=O)c1ccccc1.CC(=O)[CH-]C(=O)c1ccccc1.CC(=O)[CH-]C(=O)c1ccccc1.[In+3]`, the GI50 with CCRF-CEM leukemia is 11.6 µM; in the experiment on 786-0 renal it was 61.5 µM; in the experiment with SK-MEL-2 melanoma, 13 µM; in the experiment on KM12 colon it was 61.7 µM; with SF-539 CNS, 21.6 µM; with OVCAR-3 ovarian, 78 µM. The TGI was 49.4 µM in the experiment on CCRF-CEM leukemia; over 100 µM in the experiment on 786-0 renal; 34.2 µM with SK-MEL-2 melanoma; over 100 µM in the experiment with KM12 colon; over 100 µM with SF-539 CNS; over 100 µM in the experiment on OVCAR-3 ovarian.

With `Cc1[nH]c(=O)nc(Nc2ccc(Cl)cc2)c1C(=O)N1CCN(CCO)CC1`, the GI50 was over 100 µM in the experiment on CCRF-CEM leukemia; 50.7 µM with 786-0 renal; over 100 µM in the experiment on MOLT-4 leukemia; 46.3 µM in the experiment on MDA-MB-231 breast; over 100 µM in the experiment with KM12 colon; 75.9 µM in the experiment with SF-539 CNS. Also, the GI50 in the experiment with PC-3 prostate and with OVCAR-3 ovarian was over 100 µM in each case. Further, the TGI in the experiment on CCRF-CEM leukemia, in the experiment on 786-0 renal, in the experiment with MOLT-4 leukemia, with MDA-MB-231 breast, with KM12 colon and with SF-539 CNS was over 100 µM each time. The TGI in the experiment with PC-3 prostate and with OVCAR-3 ovarian was over 100 µM each time.

`CCOC(=O)/C(O)=C(/C(=O)OC)c1ccc(Cl)cc1`: the TGI with CCRF-CEM leukemia, in the experiment on 786-0 renal, in the experiment with SK-MEL-2 melanoma, in the experiment with MOLT-4 leukemia, in the experiment on KM12 colon and in the experiment with SF-539 CNS was over 100 µM in each case. In the experiment on OVCAR-3 ovarian, the TGI is over 100 µM.

As for `CC(=O)O[C@H]1CCC2[C@@H]3CCC4c5nonc5CC[C@]4(C)C3CC[C@@]21C` (stereo not given in full), the GI50 in the experiment on CCRF-CEM leukemia, in the experiment with SK-MEL-2 melanoma and in the experiment with KM12 colon was over 100 µM in each case. Also, the TGI in the experiment on CCRF-CEM leukemia was over 100 µM; with 786-0 renal, over 10 µM; with SK-MEL-2 melanoma, over 100 µM; with MOLT-4 leukemia, over 10 µM; in the experiment with KM12 colon it was over 100 µM; with SF-539 CNS it was over 10 µM.

With `COc1cnc2c(c1)C(=O)c1c-2n(CCCNC2=NCCS2)c(=O)c2cc(Cl)ccc12`, the GI50 is 0.239 µM with 786-0 renal; 18.3 µM with SK-MEL-2 melanoma; 0.0454 µM in the experiment on MOLT-4 leukemia; 1.52 µM with MDA-MB-231 breast; 1.33 µM with KM12 colon; 0.475 µM with SF-539 CNS. Further, the GI50 in the experiment on OVCAR-3 ovarian was 1.35 µM. Besides, the TGI came out at 1.72 µM with 786-0 renal; 34.3 µM with SK-MEL-2 melanoma; 1.71 µM in the experiment with MOLT-4 leukemia; 3.07 µM in the experiment on MDA-MB-231 breast; 2.82 µM with KM12 colon; 1.8 µM in the experiment on SF-539 CNS. The TGI in the experiment on OVCAR-3 ovarian came to 3.07 µM.

For the compound `CCc1ccccc1NC(=O)/C(N=O)=C(/C)O`, the TGI in the experiment with CCRF-CEM leukemia, in the experiment with 786-0 renal, with SK-MEL-2 melanoma, with MOLT-4 leukemia, in the experiment with KM12 colon and in the experiment with SF-539 CNS was over 100 µM in each case. In addition, the TGI with OVCAR-3 ovarian is over 100 µM.

On to `Cc1ccc(-c2csc(NC(=O)N3CCN(c4cc5c(cc4F)c(=O)c(C(=O)O)cn5C4CC4)CC3)n2)cc1`, for which the GI50 in the experiment with CCRF-CEM leukemia is 0.451 µM; in the experiment on 786-0 renal, 0.471 µM; in the experiment with SK-MEL-2 melanoma, 1.37 µM; in the experiment with MDA-MB-231 breast, 1.78 µM; in the experiment on KM12 colon, 0.458 µM; in the experiment on SF-539 CNS it was 0.418 µM. The values for the GI50 in the experiment with PC-3 prostate and in the experiment on OVCAR-3 ovarian were 0.454 µM and 0.492 µM, respectively. The TGI is over 100 µM in the experiment on CCRF-CEM leukemia; 37.5 µM in the experiment on 786-0 renal; 4.36 µM in the experiment with SK-MEL-2 melanoma; 19.4 µM in the experiment with MDA-MB-231 breast; over 100 µM in the experiment with KM12 colon; over 100 µM with SF-539 CNS. In addition, the TGI was over 100 µM in the experiment on PC-3 prostate and 18.7 µM in the experiment on OVCAR-3 ovarian.

For `O=C(NC(=Nc1ccccc1)SCCSC(=Nc1ccccc1)NC(=O)c1cccs1)c1cccs1`, the TGI with CCRF-CEM leukemia, in the experiment on 786-0 renal, in the experiment with SK-MEL-2 melanoma, in the experiment with MOLT-4 leukemia, in the experiment with KM12 colon and in the experiment on SF-539 CNS was over 100 µM throughout. Further, in the experiment on OVCAR-3 ovarian, the TGI was over 100 µM.

These data come from PubChem BioAssay (NCI).
